{"source": "paper PMC6222850", "about": "“^66Ga: A Novelty or a Valuable Preclinical Screening Tool for the Design of Targeted Radiopharmaceuticals?” (Molecules : A Journal of Synthetic Chemistry and Natural …, 2018)", "origin": "cited, not measured here", "tested_on": "LNCaP tumors", "set-up": "method as in PMID 29623376", "data": [{"compound": "O=C(O)CC[C@H](NC(=O)N[C@@H](CCCCNC(=O)[C@H](Cc1ccc2ccccc2c1)NC(=O)[C@H]1CC[C@H](CNC(=O)CN2CCN(CC(=O)O)CCN(CC(=O)O)CCN(CC(=O)O)CC2)CC1)C(=O)O)C(=O)O", "note": "[PSMA-617]", "values": [{"measurement": "Clearance from blood", "value": "fast clearance from blood"}]}]}
